According to US7541353B2, “Compounds for the treatment of hepatitis C” (Bristol-Myers Squibb Company, priority 2007, dated 2009):
Read-outs that look alike come from different tables or passages of the source.

Legend:
[1] = system: HCV replicon cells; experiment: HCV replicon FRET assay; assay type: cell-based
Experimental: FRET Assay Preparation. The HCV FRET screening assay was performed in 96-well cell culture plates. The FRET peptide (Anaspec, Inc.) (Taliani et al., Anal. Biochem. 1996, 240, 60-67) contains a fluorescence donor, EDANS, near one end of the peptide and an acceptor, DABCYL, near the other end. The fluorescence of the peptide is quenched by […] resonance energy transfer (RET) between the donor and the acceptor, but as the NS3 protease cleaves the peptide the products are released from RET quenching and the fluorescence of the donor becomes apparent. The assay reagent was made as follows: 5× cell Luciferase cell culture lysis reagent from Promega (#E153A) diluted to 1× with dH2O, NaCl added to 150 mM final, the FRET peptide diluted to 20 μM final from a 2 mM stock.
To prepare plates, HCV replicon cells, with or without a Renilla luciferase reporter gene, were trypsinized and plated in a 96-well plate with titrated test compounds added in columns 3 through 12; columns 1 and 2 contained a control compound (HCV control inhibitor), and the bottom row contained cells with DMSO only. The plates were then placed in a CO2 incubator at 37° C.
Assays. Subsequent to addition of the test compounds described above (FRET Assay Preparation), at various times the plate was removed and Alamar blue solution (Trek Diagnostics, #00-100) was added to measure cellular toxicity. After reading in a Cytoflour 4000 instrument (PE Biosystems), plates were rinsed with PBS and then used for FRET assay by the addition of 30 ul of the FRET peptide assay reagent described above (FRET Assay Preparation) per well. The plate was then placed into the Cytoflour 4000 instrument which had been set to 340 excite/490 emission, automatic mode for up to 20 cycles and the plate read in a kinetic mode. Typically, the signal to noise using an endpoint analysis after the reads was at least three-fold. Alternatively, after Alamar blue reading, plates were rinsed with PBS, then used for luciferase assay using the Promega Dual-Glo Luciferase Assay System or the Promega EnduRen Live Cell Substrate assay.
Compound analysis was performed by quantification of the relative HCV replicon inhibition and the relative cytotoxicity values. To calculate cytoxicity values, the average Alamar Blue fluorescence signals from the control wells were set as 100% non-toxic. The individual signals in each of the compound test wells were then divided by the average control signal and multiplied by 100% to determine […]. To calculate the HCV replicon inhibition values, an average background value was obtained from the two wells containing the highest amount of HCV control inhibitor at the end of the assay period. These numbers were similar to those obtained from naïve Huh-7 cells. The background numbers were then subtracted from the average signal obtained from the control wells and this number was used as 100% activity. The individual signals in each of the compound test wells were then divided by the averaged control values after background subtraction and multiplied by 100% to determine percent activity. EC50 values were calculated as the concentration which caused a 50% reduction in FRET or luciferase activity. The two numbers generated for the compound plate, percent cytoxicity and percent activity, were used to determine compounds of interest for further analysis.

[2] = target: T1, HCV NS5B (Hepatitis C virus genotype 1b, UniProt Q9WMX2); experiment: Modified HCV NS5B RdRp enzyme assay (preincubation protocol); assay type: biochemical
T1 construct: The cDNA encoding the NS5B protein of HCV, genotype 1b; made in house; host or cells: E. coli BL21(DE3)
T1 sequence (Q9WMX2 2420-2992): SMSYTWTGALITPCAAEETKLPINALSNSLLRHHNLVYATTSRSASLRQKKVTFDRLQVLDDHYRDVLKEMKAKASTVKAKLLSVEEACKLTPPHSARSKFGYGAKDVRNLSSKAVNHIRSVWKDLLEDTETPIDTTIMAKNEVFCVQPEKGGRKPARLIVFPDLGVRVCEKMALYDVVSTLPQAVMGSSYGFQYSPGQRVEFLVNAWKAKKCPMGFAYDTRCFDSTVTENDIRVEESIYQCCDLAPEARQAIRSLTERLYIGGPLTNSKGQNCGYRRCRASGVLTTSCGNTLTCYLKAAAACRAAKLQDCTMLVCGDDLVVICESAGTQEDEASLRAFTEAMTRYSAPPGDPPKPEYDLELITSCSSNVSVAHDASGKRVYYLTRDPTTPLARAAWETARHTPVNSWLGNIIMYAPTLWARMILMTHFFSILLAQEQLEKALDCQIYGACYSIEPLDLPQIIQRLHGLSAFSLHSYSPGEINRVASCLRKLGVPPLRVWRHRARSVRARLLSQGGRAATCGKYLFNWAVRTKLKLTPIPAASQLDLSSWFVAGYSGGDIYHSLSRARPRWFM
Experimental: HCV NS5B RdRp cloning, expression, and purification. The cDNA encoding the NS5B protein of HCV, genotype 1b, was cloned into the pET21a expression vector. The protein was expressed with an 18 amino acid C-terminal truncation to enhance the solubility. The E. coli competent cell line BL21(DE3) was used for expression of the protein. Cultures were grown at 37° C. for ˜4 hours until the cultures reached an optical density of 2.0 at 600 nm. The cultures were cooled to 20° C. and induced with 1 mM IPTG. Fresh ampicillin was added to a final concentration of 50 μg/ml and the cells were grown overnight at 20° C.
Cell pellets (3L) were lysed for purification to yield 15-24 mgs of purified NS5B. The lysis buffer consisted of 20 mM Tris-HCl, pH 7.4, 500 mM NaCl, 0.5% triton X-100, 1 mM DTT, 1 mM EDTA, 20% glycerol, 0.5 mg/ml lysozyme, 10 mM MgCl2, 15 ug/ml deoxyribonuclease I, and Complete™ protease inhibitor tablets (Roche). After addition of the lysis buffer, frozen cell pellets were resuspended using a tissue homogenizer. To reduce the viscosity of the sample, aliquots of the lysate were sonicated on ice using a microtip attached to a Branson sonicator. The sonicated lysate was centrifuged at 100,000×g for 1 hr at 4° C. and filtered through a 0.2 μm filter unit (Corning).
The protein was purified using two sequential chromatography steps: Heparin sepharose CL-6B and polyU sepharose 4B (Pharmacia). The chromatography buffers were identical to the lysis buffer but contained no lysozyme, deoxyribonuclease I, MgCl2 or protease inhibitor and the NaCl concentration of the buffer was adjusted according to the requirements for charging the protein onto the column. Each column was eluted with a NaCl gradient which varied in length from 5-50 column volumes depending on the column type. After the final chromatography step, the resulting purity of the enzyme is >90% based on SDS-PAGE analysis. The enzyme was aliquoted and stored at −80° C.
Standard HCV NS5B RdRp enzyme assay. HCV RdRp genotype 1b assays were run in a final volume of 60 μl in 96 well plates (Corning 3600). The assay buffer is composed of 20 mM Hepes, pH 7.5, 2.5 mM KCl, 2.5 mM MgCl2, 1 mM DTT, 1.6 U RNAse inhibitor (Promega N2515), 0.01 mg/ml BSA (Sigma B6917), and 2% glycerol. All compounds were serially diluted (3-fold) in DMSO and diluted further in water such that the final concentration of DMSO in the assay was 2%. HCV RdRp genotype 1b enzyme was used at a final concentration of 28 nM. A polyA template was used at 6 nM, and a biotinylated oligo-dT12 primer was used at 180 nM final concentration. Template was obtained commercially (Amersham 27-4110). Biotinylated primer was prepared by Sigma Genosys. 3H-UTP was used at 0.6 μCi (0.29 μM total UTP). Reactions were initiated by the addition of enzyme, incubated at 30° C. for 60 min, and stopped by adding 25 μl of 50 mM EDTA containing SPA beads (4 μg/μl, Amersham RPNQ 0007). Plates were read on a Packard Top Count NXT after >1 hr incubation at room temperature.
Modified HCV NS5B RdRp enzyme assay. A modified enzyme assay was performed essentially as described for the standard enzyme assay except for the following: The biotinylated oligo dT12 primer was precaptured on streptavidin-coated SPA beads by mixing primer and beads in assay buffer and incubating at room temperature for one hour. Unbound primer was removed after centrifugation. The primer-bound beads were resuspended in 20 mM Hepes buffer, pH 7.5 and used in the assay at final concentrations of 20 nM primer and 0.67 μg/μl beads. Order of addition in the assay: enzyme (1.75 nM) was added to diluted compound followed by the addition of a mixture of template (0.36 nM), 3H-UTP (0.6 μCi, 0.29 μM), and primer-bound beads, to initiate the reaction; concentrations given are final. Reactions were allowed to proceed for 4 hours at 30° C.
IC50 values for compounds were determined using seven different [I]. […]

| Compound | EC50 ([1]; Hepatitis C virus) [nM] | IC50 [2] [nM] | EC50 ([1]; FRET assay) [nM] | IC50 ([2]; preincubation protocol) [nM] | IC50 ([2]; preincubation protocol, read-out: IC50) [nM] |
| --- | --- | --- | --- | --- | --- |
| COc1ccc2c(c1)C1CC1(C(=O)N1C3CCC1CC(C)(O)C3)Cn1c-2c(C2CCCCC2)c2ccc(C(=O)NS(=O)(=O)N(C)C)cc21 (stereo not shown) | 4.58 to 500 | 4.58 to 500 |  |  |  |
| COc1ccc2c(c1)C1CC1(C(=O)N1C3CCC1CC(=O)C3)Cn1c-2c(C2CCCCC2)c2ccc(C(=O)NS(=O)(=O)C(C)C)cc21 (stereo not shown) | 4.58 to 500 | 4.58 to 500 |  |  |  |
| COc1ccc2c(c1)C1CC1(C(=O)N1C3COCC1COC3)Cn1c-2c(C2CCCCC2)c2ccc(C(=O)NS(=O)(=O)C(C)C)cc21 (stereo not shown) | 4.58 to 500 | 4.58 to 500 |  |  |  |
| CCC(C)S(=O)(=O)NC(=O)c1ccc2c(C3CCCCC3)c3n(c2c1)CC1(C(=O)N2C4CCC2CC(NC)C4)CC1c1cc(OC)ccc1-3 (stereo not shown) | 4.58 to 500 | 4.58 to 500 |  |  |  |
| COc1ccc2c(c1)C1CC1(C(=O)N1C3CCC1CC(N(C)Cc1ccccc1)C3)Cn1c-2c(C2CCCCC2)c2ccc(C(=O)NS(=O)(=O)C(C)C)cc21 (stereo not shown) [drawing 55] |  |  | 4.58 to 500 | 4.58 to 500 |  |
| COc1ccc2c(c1)C1CC1(C(=O)N1CC3CCC(C1)O3)Cn1c-2c(C2CCCCC2)c2ccc(C(=O)NS(=O)(=O)N(C)C)cc21 (stereo not shown) | 4.58 to 500 |  |  |  | 4.58 to 500 |
| COc1ccc2c(c1)C1CC1(C(=O)N1C3CCC1CC(N(C)Cc1ccccc1)C3)Cn1c-2c(C2CCCCC2)c2ccc(C(=O)NS(=O)(=O)C(C)C)cc21 (stereo not shown) [drawing 36] | 4.58 to 500 | 4.58 to 500 |  |  |  |
| COc1ccc2c(c1)C1CC1(C(=O)N1C3CCC1CC(N(C)Cc1ccccc1)C3)Cn1c-2c(C2CCCCC2)c2ccc(C(=O)NS(=O)(=O)N3CCC3)cc21 (stereo not shown) | 4.58 to 500 | 4.58 to 500 |  |  |  |
| COc1ccc2c(c1)C1CC1(C(=O)N1C3CCCC1COC3)Cn1c-2c(C2CCCCC2)c2ccc(C(=O)NS(=O)(=O)C3CCC3)cc21 (stereo not shown) | 4.58 to 500 | 4.58 to 500 |  |  |  |
| COc1ccc2c(c1)C1CC1(C(=O)N1C3CCC1CC(NCc1ccccc1)C3)Cn1c-2c(C2CCCCC2)c2ccc(C(=O)NS(=O)(=O)N3CCC3)cc21 (stereo not shown) | 4.58 to 500 | 4.58 to 500 |  |  |  |
| COc1ccc2c(c1)C1CC1(C(=O)N1C3COCC1COC3)Cn1c-2c(C2CCCCC2)c2ccc(C(=O)NS(=O)(=O)CC(F)(F)F)cc21 (stereo not shown) | 4.58 to 500 | 4.58 to 500 |  |  |  |
| COc1ccc2c(c1)C1CC1(C(=O)N1C3CCCC1COC3)Cn1c-2c(C2CCCCC2)c2ccc(C(=O)NS(=O)(=O)C3CCCCC3)cc21 (stereo not shown) [drawing 54] |  |  | 4.58 to 500 | 4.58 to 500 |  |
| COc1ccc2c(c1)C1CC1(C(=O)N1C3CCC1CC(NCc1ccccc1)C3)Cn1c-2c(C2CCCCC2)c2ccc(C(=O)NS(=O)(=O)N(C)C)cc21 (stereo not shown) | 4.58 to 500 | 4.58 to 500 |  |  |  |
| COc1ccc2c(c1)C1CC1(C(=O)N1C3CCC1CC(NCC1CC1)C3)Cn1c-2c(C2CCCCC2)c2ccc(C(=O)NS(=O)(=O)N(C)C)cc21 (stereo not shown) [drawing 26] |  |  | 4.58 to 500 | 4.58 to 500 |  |
